Results from ChEMBL document CHEMBL2407067, “Pyridone-conjugated monobactam antibiotics with gram-negative activity” (J Med Chem, 2013).

Columns and labels:
[1] = test system: Pseudomonas aeruginosa; test: Antibacterial activity against FpvA receptor-deficient Pseudomonas aeruginosa PAO1 in Muller-Hinton broth medium by broth microdilution method; assay type: functional
[2] = test system: Pseudomonas aeruginosa; test: Antibacterial activity against Pseudomonas aeruginosa 1042-06 by broth microdilution method; assay type: functional
[3] = test system: Pseudomonas aeruginosa; test: Ratio of MIC for PiuA/PirA receptor-deficient Pseudomonas aeruginosa PAO1 to MIC for Pseudomonas aeruginosa PAO1 in iron-chelated Muller-Hinton broth medium by broth microdilution method; assay type: functional
[4] = test system: Pseudomonas aeruginosa; test: Antibacterial activity against PiuA receptor-deficient Pseudomonas aeruginosa PAO1 in iron-chelated Muller-Hinton broth medium by broth microdilution method; assay type: functional
[5] = test system: Pseudomonas aeruginosa; test: Antibacterial activity against PirA receptor-deficient Pseudomonas aeruginosa PAO1 in iron-chelated Muller-Hinton broth medium by broth microdilution method; assay type: functional
[6] = test system: Pseudomonas aeruginosa; test: Ratio of MIC for PiuA/PirA receptor-deficient Pseudomonas aeruginosa PAO1 to MIC for Pseudomonas aeruginosa PAO1 in Muller-Hinton broth medium by broth microdilution method; assay type: functional
[7] = test system: Pseudomonas aeruginosa; test: microbe, parasite or virus in culture; conditions: 1091-05
Description: Antibacterial activity against Pseudomonas aeruginosa 1091-05 by broth microdilution method

[8] = test system: Pseudomonas aeruginosa; test: Antibacterial activity against PiuA/FptA receptor-deficient Pseudomonas aeruginosa PAO1 in iron-chelated Muller-Hinton broth medium by broth microdilution method; assay type: functional
[9] = test system: Pseudomonas aeruginosa; test: Antibacterial activity against Pseudomonas aeruginosa PAO1 in iron-chelated Muller-Hinton broth medium by broth microdilution method; assay type: functional
[10] = test system: Pseudomonas aeruginosa; test: Antibacterial activity against PiuA/PirA receptor-deficient Pseudomonas aeruginosa PAO1 in Muller-Hinton broth medium by broth microdilution method; assay type: functional
[11] = test system: Klebsiella pneumoniae; test: Antibacterial activity against Klebsiella pneumoniae 1000-02 by broth microdilution method; assay type: functional
[12] = test system: Pseudomonas aeruginosa; test: Antibacterial activity against FpvA receptor-deficient Pseudomonas aeruginosa PAO1 in iron-chelated Muller-Hinton broth medium by broth microdilution method; assay type: functional
[13] = test system: Pseudomonas aeruginosa; test: Antibacterial activity against PiuA/FptA receptor-deficient Pseudomonas aeruginosa PAO1 in Muller-Hinton broth medium by broth microdilution method; assay type: functional
[14] = test system: Pseudomonas aeruginosa; test: Ratio of MIC for PiuA receptor-deficient Pseudomonas aeruginosa PAO1 to MIC for Pseudomonas aeruginosa PAO1 in Muller-Hinton broth medium by broth microdilution method; assay type: functional
[15] = test system: Pseudomonas aeruginosa; test: Antibacterial activity against PiuA/PirA receptor-deficient Pseudomonas aeruginosa PAO1 in iron-chelated Muller-Hinton broth medium by broth microdilution method; assay type: functional
[16] = test system: Pseudomonas aeruginosa; test: Antibacterial activity against Pseudomonas aeruginosa PAO1 in Muller-Hinton broth medium by broth microdilution method; assay type: functional
[17] = test system: Pseudomonas aeruginosa; test: Antibacterial activity against FptA receptor-deficient Pseudomonas aeruginosa PAO1 in Muller-Hinton broth medium by broth microdilution method; assay type: functional
[18] = test system: Pseudomonas aeruginosa; test: Antibacterial activity against FptA receptor-deficient Pseudomonas aeruginosa PAO1 in iron-chelated Muller-Hinton broth medium by broth microdilution method; assay type: functional
[19] = test system: Pseudomonas aeruginosa; test: Antibacterial activity against PirA receptor-deficient Pseudomonas aeruginosa PAO1 in Muller-Hinton broth medium by broth microdilution method; assay type: functional
[20] = test system: Klebsiella pneumoniae; test: Antibacterial activity against Klebsiella pneumoniae 1487-07 by broth microdilution method; assay type: functional
[21] = test system: Pseudomonas aeruginosa; test: Antibacterial activity against PiuA/FpvA receptor-deficient Pseudomonas aeruginosa PAO1 in Muller-Hinton broth medium by broth microdilution method; assay type: functional
[22] = test system: Pseudomonas aeruginosa; test: Antibacterial activity against PiuA/FpvA receptor-deficient Pseudomonas aeruginosa PAO1 in iron-chelated Muller-Hinton broth medium by broth microdilution method; assay type: functional
[23] = test system: Pseudomonas aeruginosa; test: Antibacterial activity against PiuA receptor-deficient Pseudomonas aeruginosa PAO1 in Muller-Hinton broth medium by broth microdilution method; assay type: functional
[24] = test system: Acinetobacter baumannii; test: Antibacterial activity against Acinetobacter baumannii AB-3167 by broth microdilution method; assay type: functional
[25] = Inhibition of PBP2 in Pseudomonas aeruginosa ATCC 27853 after 20 mins by fluorescence assay
[26] = Inhibition of PBP1b in Pseudomonas aeruginosa ATCC 27853 after 20 mins by fluorescence assay
[27] = Inhibition of PBP3 in Pseudomonas aeruginosa ATCC 27853 after 20 mins by fluorescence assay
[28] = Inhibition of PBP1a in Pseudomonas aeruginosa ATCC 27853 after 20 mins by fluorescence assay

Row | Compound | MIC [1] [µg/mL] | MIC [2] [µg/mL] | Ratio [3] | MIC [4] [µg/mL] | MIC [5] [µg/mL] | Ratio [6] | MIC [7] [µg/mL] | MIC [8] [µg/mL] | MIC [9] [µg/mL] | MIC [10] [µg/mL] | MIC [11] [µg/mL] | MIC [12] [µg/mL] | MIC [13] [µg/mL] | Ratio [14] | MIC [15] [µg/mL] | MIC [16] [µg/mL] | MIC [17] [µg/mL] | MIC [18] [µg/mL] | MIC [19] [µg/mL] | MIC [21] [µg/mL] | further results
1 | CC(C)(O/N=C(\C(=O)N[C@@H]1C(=O)N(S(=O)(=O)[O-])[C@@H]1CNC(=O)c1cc(=O)c(O)cn1O)c1csc(N)n1)C(=O)[O-].[Na+].[Na+] | 1 | 0.5 | >=64 | 0.5 | 0.5 | >=64 | 0.5 | 0.5 | 0.5 | 64 | < 0.06 | 0.5 | 8 | 16 | 64 | 0.5 | 0.5 | 0.5 | 0.5 | 16 | MIC [20]: 0.25 µg/mL; MIC [22]: 1 µg/mL; MIC [23]: 8 µg/mL; MIC [24]: 0.5 µg/mL
2 | CC(C)(O/N=C(\C(=O)N[C@@H]1C(=O)N(S(=O)(=O)[O-])[C@@H]1CNC(=O)c1cc(-c2cc(=O)c(O)cn2O)no1)c1csc(N)n1)C(=O)[O-].[Na+].[Na+] | 0.125 | 0.25 | >=64 | 1 | 0.25 | >=64 | 0.25 | 1 | 0.25 | 32 | 1 | 0.125 | 8 | 32 | 16 | 0.25 | 0.25 | 0.25 | 0.25 | 8 | IC50 [25]: > 300000 nM; IC50 [26]: 150 nM; IC50 [27]: 6 nM; MIC [22]: 0.5 µg/mL; MIC [23]: 8 µg/mL; MIC [24]: 0.125 µg/mL; IC50 [28]: 110 nM
